Measured values published in PMC5742583, “A Functional Analysis on the Interspecies Interaction between Mouse LFA-1 and Human Intercellular Adhesion Molecule-1 at the Cell Level” (Frontiers in Immunology, 2017).
Read-outs that look alike come from different tables or passages of the source.

Legend:
ICAM-1/LFA-1 interaction = conditions: cited from earlier work
Procedure: Human and mouse LFA-1-derived peptides (human: CD11a237–261; mouse: CD11a235–259) were purchased from GenScript (Piscataway, USA) without any modification. […] Besides, incubation cells with a mouse antiCD1 ...

[1] = tested on: mouse B cells (ICAM-1/LFA-1 interaction); assay: Homotypic B cell aggregation assay; assay type: cell-based; conditions: overnight 37°C, clumping index 1-10
Procedure: To obtain these cells, mice were sacrificed by cervical dislocation, the spleens were removed, and splenocytes were isolated and resuspended in RPMI 10% FBS at a final concentration of 10^6 cells/ml. Cells were treated with 10 µg/ml PHA and 1 µg/ml ionomycin to activate LFA-1 and incubated at 37°C 5% CO2 overnight in flat bottom 96-well plates (10^5 cells) in the presence of peptides from LFA-1 and c-Myc (control) 250 µM, D1D2, D1D2Fc, and human IgG1 10 µg, EGTA 1 mM and lovastatin 100 µM. A qualitative aggregation assay was carried out as described ([36], [41]) with a slight modification. Briefly, positive control stimulated cell samples were arbitrarily assigned a clumping index of 10 and lovastatin samples an index of 1. Test samples were ranked from 1 to 10 based upon degree of clumping relative to stimulated and lovastatin-treated samples. Results were verified by a blind independent rating performed by a second observer.
Fresh mouse B cells were obtained from splenocytes and stimulated with PHA and ionomycin to induce homotypic adhesion. The results were quantified by establishing a clumping index that represents the degree of cell aggregation, which reflects the inhibition efficiency (Figure 3B). Cell aggregation was ranked by a clumping index from 1 to 10 based on the degree of aggregation in comparison with the stimulated cells (positive control, clumping index = 10).
Figure 3 Effect of human (ICAM-1) on the aggregation of mouse spleen cells. (A) Splenocytes isolated from mice were non treated (a) or activated with PHA (b–i) as described in Section “Experimental Procedures” and further incubated overnight with (b) medium; (c) IgG1; (d) c-Myc peptide; (e) EGTA; (f) lovastatin; (g) D1D2; (h) D1D2Fc; (i) mouse LFA-1 peptide CD11a235–259. Images were taken with an optical microscope (original magnification, 10×). Representative images from two independent experiments with similar results are shown. (B) The graph represents the rate of agglutination depending on the inhibitory effect on ICAM-1/LFA-1 interaction. Cells stimulated with PHA and ionomycin, which served as a positive control, were arbitrarily assigned agglutination index 10, which represents a percentage of aggregation between 90 and 100%. Homotypic aggregation was classified from 1 to 10 depending on the degree of aggregation relative to cells stimulated. The result was verified by a second independent observer. Values are presented as mean ± SEM of two separate experiments performed by duplicate. Statistical analysis was performed using two-way analysis of variance with Bonferroni’s posttest comparing with c-Myc peptide control. *p < 0.05; ***p < 0.001.

Mac-1 = conditions: ref [42], [43]; cited from earlier work
Description: (§1) In contrast, cell aggregates were clearly visible in cultures after stimulation (Figure 3A, b). […] Macrophage phenotype was confirmed by testing surface antigens by flow cytometry. Monocyte-derived macrophages expressed higher levels of HLA-DR and CD14 than undifferentiated monocytes ([51]). In addition, expression of CD54 (ICAM-1) was diminished in comparison with freshly isolated monocytes (Figure 6B). […] As shown ...

VLA-4 = conditions: ref [42], [43]; cited from earlier work
Description: as §1

D1D2Fc = molecular target: T1, D1D2Fc (Homo sapiens, UniProt P05362); conditions: peptide derived from human LFA-1, observed previously, ref [34], cited from earlier work
T1 construct: The synthetic first two domains of ICAM-1 alone (D1D2) or linked with human IgG1 Fc region (D1D2Fc) were expressed in Escherichia coli; made in house; host or cells: Escherichia coli
Description: In a previous work, we have shown that purified human recombinant ICAM-1 was able to interact with peptides derived from human LFA-1 ([34]). […] The complex formation was net exothermic as would be expected for a reaction in which specific intermolecular interactions are established. Besides, if there were no interaction, there would not be any signal. This value was obtained by fitting to the binding isotherm a 1:n interaction model, which assumes a single type of binding sites.

[2] = tested on: K562 cells killed by human NK cells (ICAM-1/LFA-1); assay: NK cell-mediated cytotoxicity on K562; assay type: cell-based; conditions: peptide 250 µM, preincubation 45 min 37°C; effector:target 3:1, 4 h; annexin-V/7-AAD by FACS; vs c-Myc control; two experiments by duplicate
Procedure: The effect of human and mouse peptides derived from LFA-1 on ICAM-1/LFA-1 dependent cell–cell contact was analyzed by performing a cell cytotoxicity assay using human primary NK cells and the NK cell sensitive human leukemia K562. Primary activated human NK cells were generated by culturing PBMCs with mitomycin C inactivated R69 cells for 5 days and enriched by MACS using anti-CD56 antibodies as previously described ([39]). Cell cytotoxicity induced by NK cells on K562 was analyzed by flow cytometry as previously described ([39]). Briefly, K562 cells were preincubated with medium alone, in the presence of 250 µM of human and mouse peptides from LFA-1 or D1D2 (15 µg) for 45 min at 37°C. Then, NK cells were added at 3:1 effector:target cell ratio and incubated for 4 h at 37°C, 5% CO2. Subsequently, phosphatidylserine exposure and 7-AAD uptake were analyzed by FACS using the annexin-V/7-AAD kit from Immunostep. As a control, the cells were incubated alone with the inhibitors to evaluate their possible toxicity, which was not significant in any case.
Figure 4 Inhibition of natural killer (NK) cell-mediated cytotoxicity by human intercellular adhesion molecule-1. […] Cell death was analyzed by measuring translocation of PS by flow cytometry in the negative population for CFSE as described in experimental procedures. […]

[3] = molecular target: human ICAM-1 first two domains linked with human IgG1 Fc region (D1D2Fc) (human); assay: ITC; 150 µM peptide injected (28 injections of 10 µl) into 12 µM D1D2Fc in the cell, PBS, 25°C, VP-ITC; fitted with a 1:n interaction model with a single type of binding sites
human monocytes = assay: Human monocyte adhesion to plastic (MTT); assay type: cell-based; conditions: human D1D2 and D1D2Fc, different concentrations, 37°C overnight, three experiments by duplicate
Procedure: (§2) Monocytes were isolated from human peripheral blood mononuclear cells (PBMCs), obtained from healthy donors (Blood and Tissue Bank of Aragon; approved by the CEICA, number: C.I.PI11/006) by density gradient centrifugation using Ficoll-Paque (GE healthcare). PBMCs were resuspended at a concentration of 2.5 × 10^6 cells/ml in RPMI medium supplemented with 1% heat-inactivated human AB serum (Sigma). Cells were cultured in a Petri dish for 2 h at 37°C 5% CO2. […]
(§3) Freshly isolated monocytes or differentiated macrophages were washed twice with PBS and incubated with trypsin (PAN Biotech) for 30 min at 37°C 5% CO2. […] Next day, every well was washed twice with PBS, complete RPMI medium was added and the number or adherent remaining cells was quantified by a MTT colorimetric test ([38]). […]
(§4) Figure 6 LFA-1 is involved in human macrophage adhesion. […] (B) Macrophage phenotype was analyzed by flow cytometry testing the expression of HL-DR, CD14, CD54, and CD11a. […] Subsequently, every well was washed twice with PBS to remove non-adherent cells and quantification of cell adhesion was carried out by MTT as described in Section “Experimental Procedures.” Values are presented as mean ± SEM of three independent experiments performed by duplicate. […]

[4] = tested on: gp33-pulsed EL4 cells killed by mouse Tc cells (ICAM-1/LFA-1); assay: CD8+ T cell-mediated cytotoxicity on EL4; assay type: cell-based; conditions: ICAM-1 proteins, several (increasing) amounts, preincubation 45 min 37°C; effector:target 10:1, 4 h; annexin-V/7-AAD by FACS; three experiments by duplicate
human macrophages = assay: Human macrophage adhesion to plastic (MTT); assay type: cell-based; conditions: human D1D2 and D1D2Fc, different concentrations, 37°C overnight, three experiments by duplicate
Procedure: as §2, §3, §4

T1 sequence (P05362 with tags, fused parts or gaps limits assumed): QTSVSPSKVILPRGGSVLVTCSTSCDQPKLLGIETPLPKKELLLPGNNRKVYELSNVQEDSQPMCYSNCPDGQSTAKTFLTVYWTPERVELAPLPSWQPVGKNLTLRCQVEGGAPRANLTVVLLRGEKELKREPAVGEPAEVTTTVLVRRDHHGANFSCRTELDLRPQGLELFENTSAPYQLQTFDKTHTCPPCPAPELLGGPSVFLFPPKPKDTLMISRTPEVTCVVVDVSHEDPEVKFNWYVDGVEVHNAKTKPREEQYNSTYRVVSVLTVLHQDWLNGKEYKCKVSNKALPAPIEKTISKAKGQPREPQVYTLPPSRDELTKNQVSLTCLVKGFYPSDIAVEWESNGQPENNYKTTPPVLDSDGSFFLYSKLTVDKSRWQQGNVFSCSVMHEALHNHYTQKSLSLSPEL

Molecule: O=C(O)CN(CCOCCOCCN(CC(=O)O)CC(=O)O)CC(=O)O [EGTA, reference compound]
- specific block of ICAM-1/LFA-1 interaction (ICAM-1/LFA-1 interaction; ref [42], [43]): specifically block ICAM-1/LFA-1 interaction
- inhibition of B cell aggregation ([1]; EGTA 1 mM, splenocytes activated with PHA and ionomycin): inhibit completely the aggregation
- effect on Mac-1 (Mac-1): without affecting
- effect on VLA-4 (VLA-4): without affecting

Molecule: ITDGEATDSGNIDAAKDIIRYIIGI [CD11a237–261, human LFA-1-derived peptide, purchased from GenScript without any modification]
- ability to block ICAM-1/LFA-1 interaction (ICAM-1/LFA-1 interaction; ref [36]): ability to block ICAM-1/LFA-1 interaction
- affinity for human ICAM-1 (D1D2Fc), in words (D1D2Fc): similar
- affinity for human ICAM-1 (D1D2Fc), in words (D1D2Fc; listed as peptide of human LFA-1): highest affinity
- inhibition of NK cell-mediated cell death of K562 [2]: blocked NK cell-mediated cell death

Molecule: ITDGEASDKGNISAAHDITRYIIGI [mouse LFA-1-derived peptide CD11a(235-259)]
- Kd [3]: 0.07 µM

B1: Human ICAM-1: human ICAM-1 (D1D2Fc and D1D2) in this paper's tests; purified human ICAM-1 in ref [29] (protein, UniProt P05362 28-532, looked up)
Intercellular adhesion …: QTSVSPSKVILPRGGSVLVTCSTSCDQPKLLGIETPLPKKELLLPGNNRKVYELSNVQEDSQPMCYSNCPDGQSTAKTFLTVYWTPERVELAPLPSWQPVGKNLTLRCQVEGGAPRANLTVVLLRGEKELKREPAVGEPAEVTTTVLVRRDHHGANFSCRTELDLRPQGLELFENTSAPYQLQTFVLPATPPQLVSPRVLEVDTQGTVVCSLDGLFPVSEAQVHLALGDQRLNPTVTYGNDSFSAKASVSVTAEDEGTQRLTCAVILGNQSQETLQTVTIYSFPAPNVILTKPEVSEGTEVTVKCEAHPRAKVTLNGVPAQPLGPRAQLLLKATPEDNGRSFSCSATLEVAGQLIHKNQTRELRVLYGPRLDERDCPGNWTWPENSQQTPMCQAWGNPLPELKCLKDGTFPLPIGESVTVTRDLEGTYLCRARSTQGEVTRKVTVNVLSPRYEIVIITVVAAAVIMGTAGLSTYLYNRQRKIKKYRLQQAQKGTPMKPNTQATPP
- inhibition of B cell aggregation ([1]; protein 10 µg, splenocytes activated with PHA 10 µg/ml and ionomycin 1 µg/ml, two experiments by duplicate): significantly inhibited adhesion
- inhibition of adhesion of human monocytes (human monocytes): completely inhibited
- inhibition of Tc cell-mediated cell death of EL4 [4]: completely blocked cell death
- inhibition of adhesion of human macrophages (human macrophages): completely inhibited
